Results from patent US20210024545A1, “SUBSTITUTED DIAZAHETERO-BICYCLIC COMPOUNDS AND THEIR USE” (Bayer Aktiengesellschaft, priority 2016, published 2021).

Tests used:
[1] = molecular target: human TASK-1 (Homo sapiens, UniProt O14649); assay: Inhibition of recombinant TASK-1 in stably transfected CHO cells, KCl-induced depolarization, voltage-sensitive dye (B-2); format: cell-based; parameters: expressed in transfected cells; host or cells: stably transfected CHO cells; conditions: depolarization induced by 40 mM potassium chloride, some mean values from multiple determinations
Protocol: (§1) B-2. Inhibition of Recombinant TASK-1 and TASK-3 In Vitro
(§2) The investigations on the inhibition of the recombinant TASK-1 and TASK-3 channels were conducted using stably transfected CHO cells. The compounds of the invention were tested here with administration of 40 mM of potassium chloride in the presence of a voltage-sensitive dye using the method described in detail in the following references [Whiteaker et al., Validation of FLIPR membrane potential dye for high-throughput screening of potassium channel modulators, J. Biomol. Screen. 6 (5), 305-312 (2001); Molecular Devices FLIPR Application Note: Measuring membrane potential using the FLIPR® membrane potential assay kit on Fluorometric Imaging Plate Reader (FLIPR®) systems, http://www.moleculardevices.com/reagents-supplies/assay-kits/ion-channels/flipr-membrane-potential-assay-kits]. The activity of the test substances was determined as their ability to inhibit a depolarization induced in the recombinant cells by 40 mM potassium chloride. The concentration which can block half of this depolarization is referred to as IC50).
(§3) Table 2 below lists the IC50 values from this assay determined for individual working examples of the invention (some as mean values from multiple independent individual determinations): […]

[2] = molecular target: human TASK-3 (Homo sapiens, UniProt Q9NPC2); assay: Inhibition of recombinant TASK-3 in stably transfected CHO cells, KCl-induced depolarization, voltage-sensitive dye (B-2); format: cell-based; parameters: expressed in transfected cells; host or cells: stably transfected CHO cells; conditions: depolarization induced by 40 mM potassium chloride, some mean values from multiple determinations
Protocol: as §1, §2, §3

Sequence of human TASK-1 (O14649 whole entry): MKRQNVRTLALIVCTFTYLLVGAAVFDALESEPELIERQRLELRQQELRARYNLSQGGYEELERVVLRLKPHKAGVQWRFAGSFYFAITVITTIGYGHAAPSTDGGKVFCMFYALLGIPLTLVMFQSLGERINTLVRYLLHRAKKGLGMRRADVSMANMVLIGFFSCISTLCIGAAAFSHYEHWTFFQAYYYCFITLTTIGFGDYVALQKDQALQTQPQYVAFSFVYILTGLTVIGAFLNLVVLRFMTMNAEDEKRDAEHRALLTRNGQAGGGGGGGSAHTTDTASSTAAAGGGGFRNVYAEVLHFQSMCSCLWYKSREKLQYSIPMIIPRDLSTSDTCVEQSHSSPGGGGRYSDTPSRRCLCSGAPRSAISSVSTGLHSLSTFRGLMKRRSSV
Sequence of human TASK-3 (Q9NPC2 whole entry): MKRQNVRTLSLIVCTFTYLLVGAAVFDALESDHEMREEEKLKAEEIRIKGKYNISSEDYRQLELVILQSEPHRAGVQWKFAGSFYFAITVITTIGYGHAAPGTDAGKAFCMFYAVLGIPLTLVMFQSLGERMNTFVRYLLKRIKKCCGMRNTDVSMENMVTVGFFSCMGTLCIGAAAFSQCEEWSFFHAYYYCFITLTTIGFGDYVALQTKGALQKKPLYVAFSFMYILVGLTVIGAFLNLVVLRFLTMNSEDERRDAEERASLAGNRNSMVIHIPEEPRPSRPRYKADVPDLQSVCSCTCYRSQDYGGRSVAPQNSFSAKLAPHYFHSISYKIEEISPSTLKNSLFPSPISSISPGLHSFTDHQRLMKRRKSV

For `O=C(c1cc(F)ccc1Cl)N1C2CCC1CN(Cc1c(-c3ccc(Cl)cc3)nc3ccccn13)C2` [Example 106], which IC50 [1] is on record?
The IC50 was 870 nM.

What about the IC50 [2] of the same compound?
Its IC50 is 110 nM.

With `Cc1ccc(F)cc1C(=O)N1C2CCC1CN(Cc1c(-c3ccc(Cl)cc3)nc3ccccn13)C2` [Example 107] as the compound, how does the IC50 [1] read?
The IC50 was 1000 nM.

What about the IC50 [2] of the same compound?
The IC50 was 33 nM.

For `COc1cccc(C(=O)N2C3CCC2CN(Cc2c(-c4ccc(Cl)cc4)nc4ccccn24)C3)c1` [Example 108], which IC50 [1] is on record?
The IC50 was 1100 nM.

What about the IC50 [2] of the same compound?
Its IC50 is 95 nM.

How did the IC50 [1] turn out when `COc1ccccc1C(=O)N1C2CCC1CN(Cc1c(-c3ccc(Cl)cc3)nc3ccccn13)C2` [Example 109] was run?
Its IC50 is 693 nM.

And the IC50 [2]?
The IC50 was 92 nM.

How did the IC50 [1] turn out when `CC(C)c1ccc(-c2nc3ccccn3c2CN2CC3CCC(C2)N3C(=O)c2ccccc2F)cc1` [Example 110] was run?
The IC50 was 780 nM.

What about the IC50 [2] of the same compound?
Its IC50 is 300 nM.

What does the source list for `O=C(c1ccccc1F)N1C2CCC1CN(Cc1c(-c3ccc(Cl)cn3)nc3ccccn13)C2` [Example 111]?
IC50 [1]: 110 nM; IC50 [2]: 25 nM

What does the source list for `COc1cccc(C(=O)N2C3CCC2CN(Cc2c(-c4ccc(Cl)cn4)nc4ccccn24)C3)c1` [Example 112]?
IC50 [1]: 200 nM; IC50 [2]: 29 nM

`O=C(C1CCCC1)N1C2CCC1CN(Cc1c(-c3ccc(Cl)cn3)nc3ccccn13)C2` [Example 113] was tested. Which IC50 [1] did it give?
The IC50 was 89 nM.

And the IC50 [2]?
Its IC50 is 21 nM.

Which IC50 [1] does the source give for `O=C(c1cccc(Cl)c1)N1C2CC1CN(Cc1c(-c3ccc(Cl)cc3)nc3ccccn13)C2` [Example 114] here?
The IC50 was 480 nM.

And the IC50 [2]?
Its IC50 is 340 nM.

Which IC50 [1] does the source give for `O=C(C1CCCC1)N1C2CC1CN(Cc1c(-c3ccc(Cl)cc3)nc3ccccn13)C2` [Example 116] here?
Its IC50 is 535 nM.

What about the IC50 [2] of the same compound?
Its IC50 is 340 nM.

Which IC50 [1] does the source give for `O=C(c1ccccc1F)N1C2CC1CN(Cc1c(-c3ccc(Cl)cc3)nc3ccccn13)C2` [Example 117] here?
Its IC50 is 635 nM.

What about the IC50 [2] of the same compound?
Its IC50 is 520 nM.

How did the IC50 [1] turn out when `O=C(C1CCCCC1)N1C2CC1CN(Cc1c(-c3ccc(Cl)cc3)nc3ccccn13)C2` [Example 118] was run?
The IC50 was 860 nM.

And the IC50 [2]?
The IC50 was 1000 nM.

For `O=C(c1cc(F)ccc1Cl)N1C2CC1CN(Cc1c(-c3ccc(Cl)cc3)nc3ccccn13)C2` [Example 119], which IC50 [1] is on record?
Its IC50 is 1100 nM.

And the IC50 [2]?
The IC50 was 1500 nM.

What does the source list for `O=C(c1cccc(OC(F)(F)F)c1)N1C2CC1CN(Cc1c(-c3ccc(Cl)cc3)nc3ccccn13)C2` [Example 120]?
IC50 [1]: 1100 nM; IC50 [2]: 180 nM

`O=C(C1CCC1)N1C2CC1CN(Cc1c(-c3ccc(Cl)cc3)nc3ccccn13)C2` [Example 121] was tested. Which IC50 [1] did it give?
The IC50 was 1700 nM.

What about the IC50 [2] of the same compound?
Its IC50 is 2800 nM.

With `CCOc1cccc(C(=O)N2C3CC2CN(Cc2c(-c4ccc(Cl)cc4)nc4ccccn24)C3)c1` [Example 122] as the compound, how does the IC50 [1] read?
Its IC50 is 1100 nM.

What about the IC50 [2] of the same compound?
Its IC50 is 120 nM.

Which results are given for `CC(C)c1ccc(-c2nc3ccccn3c2CN2CC3CC(C2)N3C(=O)C2CCCC2)cc1` [Example 123]?
IC50 [1]: 2000 nM; IC50 [2]: 1600 nM

For `O=C(c1cccc(OC(F)(F)F)n1)N1C2COCC1CN(Cc1c(-c3ccc(Cl)cn3)nc3ccccn13)C2` [Example 135, (7-{[2-(5-Chloropyridin-2-yl)imidazo[1,2-a]pyridin-3-yl]methyl}-3-oxa-7,9-diazabicyclo[3.3.1]non-9-yl)[6-(trifluoromethoxy)pyridin-2-yl]methanone], which IC50 [1] is on record?
Its IC50 is 4100 nM.

And the IC50 [2]?
Its IC50 is 160 nM.

How did the IC50 [1] turn out when `COc1ccc(Cl)c(C(=O)N2C3COCC2CN(Cc2c(-c4ccc(Cl)cn4)nc4ccccn24)C3)n1` [Example 136, (3-Chloro-6-methoxypyridin-2-yl)(7-{[2-(5-chloropyridin-2-yl)imidazo[1,2-a]pyridin-3-yl]methyl}-3-oxa-7,9-diazabicyclo[3.3.1]non-9-yl)methanone] was run?
Its IC50 is 9300 nM.

And the IC50 [2]?
Its IC50 is 44 nM.

`COc1ccc(Cl)c(C(=O)N2C3CCC2CN(Cc2c(-c4ccc(Br)cc4)nc4ccccn24)C3)n1` [Example 139, (3-{[2-(4-Bromophenyl)imidazo[1,2-a]pyridin-3-yl]methyl}-3,8-diazabicyclo[3.2.1]oct-8-yl)(3-chloro-6-methoxypyridin-2-yl)methanone] was tested. Which IC50 [1] did it give?
The IC50 was 290 nM.

What about the IC50 [2] of the same compound?
Its IC50 is 18 nM.

With `COc1ccc(F)c(C(=O)N2C3CCC2CN(Cc2c(-c4ccc(Br)cc4)nc4ccccn24)C3)n1` [Example 140, (3-{[2-(4-Bromophenyl)imidazo[1,2-a]pyridin-3-yl]methyl}-3,8-diazabicyclo[3.2.1]oct-8-yl)(3-fluoro-6-methoxypyridin-2-yl)methanone] as the compound, how does the IC50 [1] read?
The IC50 was 160 nM.

And the IC50 [2]?
The IC50 was 21 nM.

For `CC(C)c1ccccc1C(=O)N1C2CCC1CN(Cc1c(-c3ccc(Br)cc3)nc3ccccn13)C2` [Example 141, (3-{[2-(4-Bromophenyl)imidazo[1,2-a]pyridin-3-yl]methyl}-3,8-diazabicyclo[3.2.1]oct-8-yl)(2-isopropylphenyl)methanone], which IC50 [1] is on record?
The IC50 was 250 nM.

And the IC50 [2]?
The IC50 was 59 nM.

How did the IC50 [1] turn out when `COc1ccc(C)c(C(=O)N2C3CC2CN(Cc2c(-c4ccc(Cl)cc4)nc4ccccn24)C3)n1` [Example 142, (3-{[2-(4-Chlorophenyl)imidazo[1,2-a]pyridin-3-yl]methyl}-3,6-diazabicyclo[3.1.1]hept-6-yl)(6-methoxy-3-methylpyridin-2-yl)methanone] was run?
Its IC50 is 240 nM.

And the IC50 [2]?
The IC50 was 98 nM.

What does the source list for `COc1ccc(C)c(C(=O)N2CC3CCC(C2)N3Cc2c(-c3ccc(Cl)cc3)nc3ccccn23)n1` [Example 143, (8-{[2-(4-Chlorophenyl)imidazo[1,2-a]pyridin-3-yl]methyl}-3,8-diazabicyclo[3.2.1]oct-3-yl)(6-methoxy-3-methylpyridin-2-yl)methanone]?
IC50 [1]: 130 nM; IC50 [2]: 14 nM

`COc1ccc(C)c(C(=O)N2CC3CCC(C2)N3Cc2c(-c3ccc(C(C)C)cc3)nc3ccccn23)n1` [Example 144, (8-{[2-(4-Isopropylphenyl)imidazo[1,2-a]pyridin-3-yl]methyl}-3,8-diazabicyclo[3.2.1]oct-3-yl)(6-methoxy-3-methylpyridin-2-yl)methanone] was tested. Which IC50 [1] did it give?
The IC50 was 180 nM.

What about the IC50 [2] of the same compound?
Its IC50 is 27 nM.

How did the IC50 [1] turn out when `COc1ccc(C)c(C(=O)N2C3CCC2CN(Cc2c(-c4ccc(C(C)C)cc4)nc4ccccn24)C3)n1` [Example 145, (3-{[2-(4-Isopropylphenyl)imidazo[1,2-a]pyridin-3-yl]methyl}-3,8-diazabicyclo[3.2.1]oct-8-yl)(6-methoxy-3-methylpyridin-2-yl)methanone] was run?
Its IC50 is 280 nM.

What about the IC50 [2] of the same compound?
The IC50 was 27 nM.

For `CC(C)c1csc(C(=O)N2C3CCC2CN(Cc2c(-c4ccc(Cl)cc4)nc4ccccn24)C3)n1` [Example 146, (3-{[2-(4-Chlorophenyl)imidazo[1,2-a]pyridin-3-yl]methyl}-3,8-diazabicyclo[3.2.1]oct-8-yl)(4-isopropyl-1,3-thiazol-2-yl)methanone], which IC50 [1] is on record?
Its IC50 is 920 nM.

What about the IC50 [2] of the same compound?
Its IC50 is 340 nM.

Which IC50 [1] does the source give for `O=C(c1nccs1)N1C2CCC1CN(Cc1c(-c3ccc(Cl)cc3)nc3ccccn13)C2` [Example 147, (3-{[2-(4-Chlorophenyl)imidazo[1,2-a]pyridin-3-yl]methyl}-3,8-diazabicyclo[3.2.1]oct-8-yl)(1,3-thiazol-2-yl)methanone] here?
Its IC50 is 12 nM.

And the IC50 [2]?
The IC50 was 15 nM.

`Cc1csc(C(=O)N2C3CCC2CN(Cc2c(-c4ccc(Cl)cc4)nc4ccccn24)C3)n1` [Example 148, (3-{[2-(4-Chlorophenyl)imidazo[1,2-a]pyridin-3-yl]methyl}-3,8-diazabicyclo[3.2.1]oct-8-yl)(4-methyl-1,3-thiazol-2-yl)methanone] was tested. Which IC50 [1] did it give?
The IC50 was 23 nM.

What about the IC50 [2] of the same compound?
Its IC50 is 2.7 nM.

Which IC50 [1] does the source give for `Cc1cnc(C(=O)N2C3CCC2CN(Cc2c(-c4ccc(Cl)cc4)nc4ccccn24)C3)s1` [Example 149, (3-{[2-(4-Chlorophenyl)imidazo[1,2-a]pyridin-3-yl]methyl}-3,8-diazabicyclo[3.2.1]oct-8-yl)(5-methyl-1,3-thiazol-2-yl)methanone] here?
Its IC50 is 3000 nM.

And the IC50 [2]?
The IC50 was 300 nM.

What does the source list for `Cc1nc(C(=O)N2C3CCC2CN(Cc2c(-c4ccc(Cl)cc4)nc4ccccn24)C3)sc1C` [Example 150, (3-{[2-(4-Chlorophenyl)imidazo[1,2-a]pyridin-3-yl]methyl}-3,8-diazabicyclo[3.2.1]oct-8-yl)(4,5-dimethyl-1,3-thiazol-2-yl)methanone]?
IC50 [1]: 2700 nM; IC50 [2]: 210 nM

Which IC50 [1] does the source give for `CC(C)NC(=O)N1C2CCC1CN(Cc1c(-c3ccc(Cl)cc3)nc3ccccn13)C2` [Example 154, 3-{[2-(4-Chlorophenyl)imidazo[1,2-a]pyridin-3-yl]methyl}-N-isopropyl-3,8-diazabicyclo[3.2.1]octane-8-carboxamide] here?
Its IC50 is 130 nM.

What about the IC50 [2] of the same compound?
Its IC50 is 29 nM.

Which IC50 [1] does the source give for `O=C(Nc1ccccc1F)N1C2CCC1CN(Cc1c(-c3ccc(Cl)cc3)nc3ccccn13)C2` [Example 155, 3-{[2-(4-Chlorophenyl)imidazo[1,2-a]pyridin-3-yl]methyl}-N-(2-fluorophenyl)-3,8-diazabicyclo[3.2.1]octane-8-carboxamide] here?
Its IC50 is 610 nM.

What about the IC50 [2] of the same compound?
The IC50 was 210 nM.

What does the source list for `O=C(Nc1c(Cl)cccc1Cl)N1C2CCC1CN(Cc1c(-c3ccc(Cl)cc3)nc3ccccn13)C2` [Example 156, 3-{[2-(4-Chlorophenyl)imidazo[1,2-a]pyridin-3-yl]methyl}-N-(2,6-dichlorophenyl)-3,8-diazabicyclo[3.2.1]octane-8-carboxamide]?
IC50 [1]: 1200 nM; IC50 [2]: 15 nM

`Cc1cccc(C)c1NC(=O)N1C2CCC1CN(Cc1c(-c3ccc(Cl)cc3)nc3ccccn13)C2` [Example 157, 3-{[2-(4-Chlorophenyl)imidazo[1,2-a]pyridin-3-yl]methyl}-N-(2,6-dimethylphenyl)-3,8-diazabicyclo[3.2.1]octane-8-carboxamide] was tested. Which IC50 [1] did it give?
Its IC50 is 24 nM.

What about the IC50 [2] of the same compound?
The IC50 was 7.4 nM.
